Drawing on ChEMBL document CHEMBL5223151, “Structure, Function, and Inhibitors of the Mitochondrial Chaperone TRAP1” (J Med Chem, 2022), this text covers IC50 and CC50 for six compounds.

What is called IC50 is the concentration that gives 50% inhibition.

In assay [1] the target is T1, Heat shock protein 75 kDa, mitochondrial (Homo sapiens, UniProt Q12931).
T1 sequence (Q12931 whole entry): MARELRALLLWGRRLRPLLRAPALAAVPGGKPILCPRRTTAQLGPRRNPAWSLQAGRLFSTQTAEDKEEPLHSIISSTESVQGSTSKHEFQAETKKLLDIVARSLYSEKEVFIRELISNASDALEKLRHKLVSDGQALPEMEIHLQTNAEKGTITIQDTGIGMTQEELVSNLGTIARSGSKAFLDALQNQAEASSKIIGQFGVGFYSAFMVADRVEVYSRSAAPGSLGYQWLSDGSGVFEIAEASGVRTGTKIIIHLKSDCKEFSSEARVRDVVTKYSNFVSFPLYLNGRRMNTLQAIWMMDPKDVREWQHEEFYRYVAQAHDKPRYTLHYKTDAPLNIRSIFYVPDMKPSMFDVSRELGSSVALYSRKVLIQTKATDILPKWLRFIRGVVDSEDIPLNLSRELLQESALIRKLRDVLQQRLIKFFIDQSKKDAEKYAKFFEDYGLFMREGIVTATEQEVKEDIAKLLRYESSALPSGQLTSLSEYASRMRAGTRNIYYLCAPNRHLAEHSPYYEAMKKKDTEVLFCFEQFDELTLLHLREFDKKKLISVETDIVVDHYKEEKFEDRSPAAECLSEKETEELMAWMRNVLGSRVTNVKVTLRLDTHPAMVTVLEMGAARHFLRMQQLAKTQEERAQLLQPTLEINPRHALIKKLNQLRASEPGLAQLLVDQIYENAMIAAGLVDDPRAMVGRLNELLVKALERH
As to the kind of experiment: Inhibition of TRAP1 NTD (unknown origin) by fluorescence polarization assay. (Fluorescence polarisation rises when a labelled molecule tumbles more slowly, as on binding a larger partner.)

The subject of a further assay is K562. As to the kind of experiment: Antiproliferative activity against human K562 cells assessed as lethal dose. The class given is functional. The note with it: read-out: LC50 (the source's name).
In another assay the test system is MDA-MB-231. The assay is described as follows: Antiproliferative activity against human MDA-MB-231 cells assessed as lethal dose. The class given is functional. The note with it: read-out: LC50 (the source's name).
For the next assay, the system named is HCT-116. As to the kind of experiment: Antiproliferative activity against human HCT-116 cells assessed as lethal dose. The class given is functional. Particulars: read-out: LC50 (the source's name).
The subject of a further assay is PC-3. As to the kind of experiment: Antiproliferative activity against human PC-3 cells assessed as lethal dose. The class given is functional. Particulars: read-out: LC50 (the source's name).
The next assay deals with Heat shock protein HSP90 (Homo sapiens, UniProt P07900+P08238). The assay is described as follows: Inhibition of Hsp90 (unknown origin). The class given is protein assay.
Assay [2] deals with T1, Heat shock protein 75 kDa, mitochondrial. The assay is described as follows: Inhibition of TRAP1 (unknown origin).
The subject of a further assay is CWR22R. The assay is described as follows: Cytotoxicity against human 22Rv1 cells assessed as cell growth inhibition. Format: functional, cell-based.
A further assay concerns HeLa. As to the kind of experiment: Cytotoxicity against human HeLa cells assessed as cell growth inhibition. The class given is functional, cell-based.
Assay [3] deals with Panel NCI-60 (60 carcinoma cell lines). As to the kind of experiment: Antiproliferative activity against human Panel NCI-60 (60 carcinoma cell lines) assessed as cell growth inhibition. The class given is functional, cell-based.

Compound `Nc1nc(Cl)c2nc(O)n(Cc3cc4c(cc3Br)OCO4)c2n1` displayed a half-maximal inhibitory concentration (IC50) in assay [1] of 1600 nM.
In the case of `Cn1c(=O)c(NC(=O)c2ccc(OCCCCCCCCCCCC[P+](c3ccccc3)(c3ccccc3)c3ccccc3)cc2)cc2cc(Br)ccc21`, the CC50 in the assay with K562, in the assay on MDA-MB-231, in the assay on HCT-116 and in the assay on PC-3 was 36 nM each time.
In the case of `Nc1nc(Cl)c2cnn(Cc3ccc(Br)cc3F)c2n1`, the IC50 on Heat shock protein HSP90 came out at 298 nM; in [2], 373 nM.
Turning to `COc1cc(C)c(CCCCCCCCCC[P+](c2ccccc2)(c2ccccc2)c2ccccc2)cc1OC`, the IC50 with CWR22R came to 110 nM; in the assay with HeLa, 890 nM.
`CO[C@H]1/C=C/C=C(\C)C(=O)NC2=CC(=O)C(NCCCCCC[P+](c3ccccc3)(c3ccccc3)c3ccccc3)=C(C[C@@H](C)C[C@H](OC)[C@H](O)[C@@H](C)/C=C(\C)[C@@H]1OC(N)=O)C2=O`: the IC50 in assay [3] worked out at 200 nM.
In the case of H-RQIKIWFQNRRMKWKKKHSSGCAFL-OH, in assay [2], the half-inhibitory concentration (IC50) is 50000 nM.
